Series [1] is described as follows: Pharmacokinetic studies on healthy rats. In kind it is in vivo. The note with it: male, rat, po, SD rats, 10 mg/kg i.g., plasma; for AUC(0-t): read-out: AUC0-24. An excerpt: SD rats were used as test animals, and LC/MS/MS method was applied for measuring the drug concentrations of rats at different time after administrating the compounds of the present invention by gavage, respectively. Pharmacokinetic behaviors of the compounds of the present invention on rats were studied, so as to evaluate the pharmacokinetic characteristics thereof.
SD rats, weighing 180-220 g, male, 40 rats, 5 rats in each group, provided by Chengdu Dashuo Biological Technology Co., Ltd.; Production facility license: SCXK (Chuan) 2008-24. Animals were housed in the animal room after purchased, adaptively observed for at least three days, and used for assays unless they were qualified for the quarantine standard.
3.1 Grouping: the rats were randomly grouped according to Table 3, with no significant difference among the groups;
Rats in each group was administrated by gavage with the corresponding investigational drugs according to Table 3, at 5 min, 10 min, 20 min, 30 min, 1 h, 2 h, 4 h, 6 h, 8 h, 10 h, 12 h, 24 h after administration, 0.5 ml of blood was taken into the vacuum blood-collection tubes containing heparin sodium, and centrifuged at 5,000 rpm to obtain plasma which was stored at −20° C.
50 μL plasma at each time after administration was taken, then 150 μL of acetonitrile was added, which was subjected to vortex at 1500 rpm for 2 minutes. Solution was centrifuged for 15 minutes (3500 r/min), after that 10 μL supernatant was analyzed by HPLC/MS/MS.
The pharmacokinetic behaviors of the investigational compounds were subjected to compartmental model fitting, and DAS 2.0 software was used to calculate the main pharmacokinetic parameters.

The target in series [2] is human FXa (Homo sapiens, UniProt P00742). Briefly: Human FXa inhibition assay (fluorogenic substrate). In kind it is biochemical. As to conditions: human FXa 1 nM, substrate 106.7 μM, 30 minutes at room temperature, pH 8.0. How it is done: Inhibitory effects of the compounds of the present invention on human FXa were studied, to measure IC50 values thereof on human FXa.
human FXa, sequence (P00742 235-488 limits assumed): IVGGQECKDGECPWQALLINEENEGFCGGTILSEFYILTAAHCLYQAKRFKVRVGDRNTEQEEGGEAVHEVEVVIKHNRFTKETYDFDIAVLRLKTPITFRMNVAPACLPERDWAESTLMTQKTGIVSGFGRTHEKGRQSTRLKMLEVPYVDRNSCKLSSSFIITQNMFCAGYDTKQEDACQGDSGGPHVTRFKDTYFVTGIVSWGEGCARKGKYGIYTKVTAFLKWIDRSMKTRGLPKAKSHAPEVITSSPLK
human FXa, sequence (P00742 41-179 partner limits assumed): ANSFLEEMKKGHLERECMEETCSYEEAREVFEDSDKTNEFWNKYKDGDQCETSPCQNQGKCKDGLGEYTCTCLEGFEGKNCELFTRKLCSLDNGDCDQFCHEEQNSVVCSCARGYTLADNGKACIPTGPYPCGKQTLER
human FXa enzyme (Sekisui Diagnostics, REF 526);
Fluorogenic substrate for the FXa assay (American diagnostic, Product No. 222F);
Buffer: 20 mM Tris-HCl, 200 mM NaCl, 2.5 mM CaCl2, pH 8.0.
(2) 10 mM of each compound was 5-fold diluted serially with buffer to different concentrations (from 40 μM to 0.00002048 μM);
(3) 6 μL of the above diluted solutions of Step (2) were added into each well of 384-well plate to make a final volume of 60 μL, and the final concentration of the compound ranged from 4 μM to […];
(4) 30 μL of human FXa enzyme (2 nM) was added into each well, with a final concentration of 1 nM;
(5) 24 μL human FXa fluorescent enzyme substrate (266.7 μM) was added into each well, with a final concentration of 106.7 μM;
(6) the plate was gently shaked for 5 minutes and then incubated for 30 minutes at room temperature, with avoidance from light;
(7) fluorescence signal was read at 360/440 nm, the inhibition percentage was measured, and 4 Parameter Logistic Model in Xlfit software was employed to calculate IC50.

The subject of series [3] is APTT of healthy mice. Briefly: Effects on APTT of healthy mice. The note with it: 5 mg/kg i.g.; for APTT (sec): KM mice, blood collected 1 hour after administration, x ± SD, 10 mice per group; for anticoagulant effect (APTT) compared with positive drug Apixaban: mice, 1 h after administration, same dose. Format: in vivo, KM mice. From the text:
Test for four coagulation parameters (including prothrombin time (PT), activated partial thromboplastin time (APTT), thrombin time (TT) and fibrinogen (FIB)) belongs to one of clinical inspection items, and is necessary to thrombotic disease inspections or before the surgery. APTT mainly reflects whether the intrinsic coagulation system status is normal or not. Accordingly, the APTT value is used as a detection indicator in this test of the present invention. The anticoagulant effects of the compounds prepared in the Examples of the present invention were evaluated through the effects thereof on APTT of mice.
KM mice, weighing 28-30 g, male, 170 mice, provided by Chengdu Dashuo Biological Technology Co., Ltd.; Production facility license: SCXK (Chuan) 2008-24. Animals were housed in the animal room after purchased, adaptively observed for at least three days, and used for assays unless they were qualified for the quarantine standard.
(1) Grouping: mice were grouped and tested according to Table 1, wherein there were 10 mice in each group.
Mice in each group were administrated with the corresponding investigational drugs (mice in control group were administrated with the normal saline). At 1 hour after administration, blood was collected into 0.5 ml vacuum blood-collection tube containing sodium citrate from mice orbit. APTT values of animals were measured after collecting the blood samples.
Excel was used for statistics, experimental data were expressed as (x±SD), and two-sided T-test method was used to statistically compare the experimental data among multiple groups.

The Cmax is the highest concentration seen after dosing. In general, Tmax refers to the time from dosing to the highest level. A word on the half-life: it is the time in which the quantity being followed falls by half. Read a high half-life as slow loss. What is called IC50 is the concentration that inhibits the measured activity by half. Read a high IC50 as weaker potency.

As to `COc1ccc(-n2nc(C(N)=O)c3c2C(=O)N(c2ccc(N4CCCC4=O)c(C)c2)CC3)cc1` [Example 16, 1-(4-methoxyphenyl)-7-oxo-6-[3-methyl-4-(2-oxo-pyrrolidin-1-yl)phenyl]-4,5,6,7-tetrahydro-1H-pyrazolo[3,4-c]pyridine-3-carboxamide], in series [1], the concentration peaked (Cmax) at 9450 ng/mL, the time to peak (Tmax) was found to be 0.25 h, the half-life was 6.2 h and the AUC(0-t) is 37700 ng·h/mL. For the same compound, in series [2], the IC50 stood at 0.023 nM. Besides, in series [3], the “APTT (sec)” value was 29.89 ± 2.72 * * ^ΔΔ sec and the “anticoagulant effect (APTT) compared with positive drug Apixaban” value is listed as “significantly better than positive drug Apixaban”.

`Cc1cc(N2CCc3c(C(N)=O)nn(-c4cc(F)cc(F)c4)c3C2=O)ccc1N1CCCC1=O` [Example 17, 1-(3,5-difluoro-phenyl)-7-oxo-6-[3-methyl-4-(2-oxo-pyrrolidin-1-yl)phenyl]-4,5,6,7-tetrahydro-1H-pyrazolo[3,4-c]pyridine-3-carboxamide]: in series [1], the concentration peaked (Cmax) at 9670 ng/mL, the Tmax was found to be 0.25 h, the half-life is 6.8 h and the AUC(0-t) turned out to be 38600 ng·h/mL. The IC50 in series [2] came to 0.015 nM. In series [3], the “APTT (sec)” value is on record as 30.79 ± 2.91 * * ^ΔΔ sec and the “anticoagulant effect (APTT) compared with positive drug Apixaban” value is reported as “significantly better than positive drug Apixaban”.

In the case of `COc1ccc(-n2nc(C(N)=O)c3c2C(=O)N(c2ccc(N4CCCC4=O)c(C)c2)CC3)cc1F` [Example 18, 1-(3-fluoro-4-methoxyphenyl)-7-oxo-6-[3-methyl-4-(2-oxo-pyrrolidin-1-yl)phenyl]-4,5,6,7-tetrahydro-1H-pyrazolo[3,4-c]pyridine-3-carboxamide], in series [1], the peak concentration (Cmax) stood at 8970 ng/mL, the Tmax came to 0.25 h, the half-life is 6.8 h and the AUC(0-t) is 35500 ng·h/mL. The compound further showed an IC50 in series [2] of 0.091 nM. In series [3], the “APTT (sec)” value is reported as 28.96 ± 2.42 * * ^ΔΔ sec and the “anticoagulant effect (APTT) compared with positive drug Apixaban” value is listed as “significantly better than positive drug Apixaban”.

(Values after US9815833B2, “Pyridine derivative and medical use thereof” (Chengdu Easton Biopharmaceuticals Co., Ltd., priority 2013, dated 2017).)
